In US20100298141A1, “SUBSTITUTED PYRIDINE N-OXIDE HERBICIDES” (E. I. DU PONT DE NEMOURS AND COMPANY, priority 2007, published 2010):

Tests used:
[1] = test system: redroot pigweed; assay: Test A pre-/postemergence greenhouse test; assay type: in vivo, Amaranthus retroflexus; details: for Pigweed plant response rating: 0 to 100 scale
Method in brief: (§1)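 Each test compound, dissolved in a non-phytotoxic solvent mixture with surfactant, was sprayed directly onto seeded soil (loam/sand blend) and, at the same moment, onto seedlings carrying one to two leaves. Around ten greenhouse days later, plants were rated visually for injury relative to untreated controls.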

[2] = test system: giant foxtail; assay: Test A pre-/postemergence greenhouse test; assay type: in vivo, Setaria faberi; details: for Foxtail, Giant plant response rating: 0 to 100 scale
Method in brief: as §1

[3] = test system: common (oilseed) sunflower; assay: Test C pre-/postemergence test; assay type: in vivo, Helianthus annuus
Method in brief: (§2)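 Compounds in a non-phytotoxic solvent with surfactant applied preemergence to seeded pots and, at the same time, postemergence to plants 2–18 cm tall (1- to 4-leaf stage). Paddy tests: pots flooded to 3 cm, compound applied into the water, depth held throughout.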

[4] = test system: lambsquarters; assay: Test C pre-/postemergence test; assay type: in vivo, Chenopodium album
Method in brief: as §2

[5] = test system: barnyardgrass; assay: Test A pre-/postemergence greenhouse test; assay type: in vivo, Echinochloa crus-galli; details: for Barnyardgrass plant response rating: 0 to 100 scale
Method in brief: as §1

[6] = test system: corn; assay: Test A pre-/postemergence greenhouse test; assay type: in vivo, Zea mays; details: for Corn plant response rating: 0 to 100 scale
Method in brief: as §1

[7] = test system: eastern black nightshade; assay: Test C pre-/postemergence test; assay type: in vivo, Solanum ptycanthum
Method in brief: as §2

[8] = test system: Surinam grass; assay: Test C pre-/postemergence test; assay type: in vivo, Brachiaria decumbens
Method in brief: as §2

[9] = test system: crabgrass; assay: Test C pre-/postemergence test; assay type: in vivo, Digitaria sanguinalis
Method in brief: as §2

[10] = test system: umbrella sedge; assay: Test C flooded paddy test; assay type: in vivo, Cyperus difformis; details: Flood
Method in brief: (§3)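 Ratings were visual and made relative to untreated controls after 13 to 15 greenhouse days.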

[11] = test system: Goosegrass; assay: Test C pre-/postemergence test; assay type: in vivo, Eleusin indica
Method in brief: as §2

[12] = test system: pigweed; assay: Test C pre-/postemergence test; assay type: in vivo, Amaranthus retroflexus
Method in brief: as §2

[13] = test system: rice; assay: Test C flooded paddy test; assay type: in vivo, Oryza sativa; details: Flood
Method in brief: as §3

[14] = test system: morningglory; assay: Test A pre-/postemergence greenhouse test; assay type: in vivo, Ipomoea spp.; details: for Morningglory plant response rating: 0 to 100 scale
Method in brief: as §1

[15] = test system: bermudagrass; assay: Test C pre-/postemergence test; assay type: in vivo, Cynodon dactylon
Method in brief: as §2

[16] = test system: wheat; assay: Test C pre-/postemergence test; assay type: in vivo, Triticum aestivum
Method in brief: as §2

[17] = test system: wheat; assay: Test A pre-/postemergence greenhouse test; assay type: in vivo, Triticum aestivum; details: for Wheat plant response rating: 0 to 100 scale
Method in brief: as §1

[18] = Postemergence, 125 g ai/ha, 0 to 100 scale where 0 is no effect and 100 is complete control
[19] = Postemergence, 500 g ai/ha, 0 is no effect, 100 is complete control
[20] = Preemergence, 125 g ai/ha, 0 no effect, 100 complete control
[21] = Preemergence, 500 g ai/ha, 0 no effect, 100 complete control
[22] = 62 g ai/ha, Preemergence, scale 0 to 100
[23] = 125 g ai/ha, preemergence, scale 0 (no effect) to 100 (complete control)
[24] = Preemergence, 31 g ai/ha, scale 0 to 100 (0 no effect, 100 complete control)
[25] = preemergence, 250 g ai/ha, scale 0 (no effect) to 100 (complete control)
[26] = 62 g ai/ha, scale 0 to 100 (0 no effect, 100 complete control)
[27] = 250 g ai/ha, scale 0 to 100, 0 no effect, 100 complete control, 13 to 15 days

For `C#CCOc1c(CS(=O)(=O)c2cccc[n+]2[O-])c(C(F)(F)F)nn1C` [Compound 103], the “Plant response rating, Pigweed” value [1, 18] was 30, the “Pigweed plant response rating” value [1, 19] was 60 and the “Pigweed plant response rating” value [1, 20] was 60. For the same molecule, the “Pigweed plant response rating” value [1, 21] was 100, the “Plant response rating, Foxtail, Giant” value [2, 18] was 80 and the “Foxtail, Giant plant response rating” value [2, 19] was 90. The “Foxtail, Giant plant response rating” value [2, 20] was 80, the “Foxtail, Giant plant response rating” value [2, 21] was 100 and the “Sunflower plant response rating” value [3, 22] was 35. For the same molecule, the “Sunflower plant response rating” value [3, 23] was 50, the “Plant response rating, Sunflower” value [3, 24] was 35 and the “Sunflower plant response rating” value [3, 25] was 90. The “Lambsquarters plant response rating” value [4, 22] was 50, the “Lambsquarters plant response rating” value [4, 23] was 50 and the “Plant response rating, Lambsquarters” value [4, 24] was 10. The “Lambsquarters plant response rating” value [4, 25] was 95, the “Plant response rating, Barnyardgrass” value [5, 18] was 80 and the “Barnyardgrass plant response rating” value [5, 19] was 90. The “Barnyardgrass plant response rating” value [5, 20] was 90, the “Barnyardgrass plant response rating” value [5, 21] was 100 and the “Plant response rating, Corn” value [6, 18] was 0. For the same molecule, the “Corn plant response rating” value [6, 19] was 60, the “Corn plant response rating” value [6, 20] was 0 and the “Corn plant response rating” value [6, 21] was 60. For the same molecule, the “Nightshade plant response rating” value [7, 22] was 90, the “Nightshade plant response rating” value [7, 23] was 90 and the “Plant response rating, Nightshade” value [7, 24] was 90. The “Nightshade plant response rating” value [7, 25] was 98, the “Surinam Grass plant response rating” value [8, 22] was 80 and the “Surinam Grass plant response rating” value [8, 23] was 90. For the same molecule, the “Plant response rating, Surinam Grass” value [8, 24] was 0, the “Surinam Grass plant response rating” value [8, 25] was 95 and the “Crabgrass, Large plant response rating” value [9, 22] was 98. The “Crabgrass, Large plant response rating” value [9, 23] was 100, the “Plant response rating, Crabgrass, Large” value [9, 24] was 90 and the “Crabgrass, Large plant response rating” value [9, 25] was 100. For the same molecule, the “Plant response rating, Sedge, Umbrella” value [10, 26] was 0, the “Plant response rating, Sedge, Umbrella” value [10, 27] was 55 and the “Goosegrass plant response rating” value [11, 22] was 100. The “Goosegrass plant response rating” value [11, 23] was 100, the “Plant response rating, Goosegrass” value [11, 24] was 50 and the “Goosegrass plant response rating” value [11, 25] was 100. For the same molecule, the “Pigweed plant response rating” value [12, 22] was 100, the “Pigweed plant response rating” value [12, 23] was 100 and the “Plant response rating, Pigweed” value [12, 24] was 60. For the same molecule, the “Pigweed plant response rating” value [12, 25] was 100, the “Plant response rating, Rice” value [13, 26] was 0 and the “Plant response rating, Rice” value [13, 27] was 0. The “Plant response rating, Morningglory” value [14, 18] was 20, the “Morningglory plant response rating” value [14, 19] was 70 and the “Morningglory plant response rating” value [14, 20] was 0. For the same molecule, the “Morningglory plant response rating” value [14, 21] was 70, the “Bermudagrass plant response rating” value ([15]; 62 g ai/ha, Preemergence, scale 0 to 100 (0 no effect, 100 complete control)) was 100 and the “Bermudagrass plant response rating” value [15, 23] was 100. For the same molecule, the “Plant response rating, Bermudagrass” value [15, 24] was 40, the “Bermudagrass plant response rating” value [15, 25] was 100 and the “Wheat plant response rating” value [16, 22] was 0. For the same molecule, the “Wheat plant response rating” value [16, 23] was 25, the “Plant response rating, Wheat” value [16, 24] was 0 and the “Wheat plant response rating” value [16, 25] was 98. For the same molecule, the “Plant response rating, Wheat” value [17, 18] was 20, the “Wheat plant response rating” value [17, 19] was 50 and the “Wheat plant response rating” value [17, 20] was 10. For the same molecule, the “Wheat plant response rating” value [17, 21] was 80.
